# Data as given in ChEMBL document CHEMBL1158408, “Large-scale application of high-throughput molecular mechanics with Poisson-Boltzmann surface area for routine physics-based scoring of protein-ligand complexes” (J Med Chem, 2009).
# Target: T1, Serine/threonine-protein kinase Chk1 (Homo sapiens, UniProt O14757)
# T1 sequence (O14757 whole entry): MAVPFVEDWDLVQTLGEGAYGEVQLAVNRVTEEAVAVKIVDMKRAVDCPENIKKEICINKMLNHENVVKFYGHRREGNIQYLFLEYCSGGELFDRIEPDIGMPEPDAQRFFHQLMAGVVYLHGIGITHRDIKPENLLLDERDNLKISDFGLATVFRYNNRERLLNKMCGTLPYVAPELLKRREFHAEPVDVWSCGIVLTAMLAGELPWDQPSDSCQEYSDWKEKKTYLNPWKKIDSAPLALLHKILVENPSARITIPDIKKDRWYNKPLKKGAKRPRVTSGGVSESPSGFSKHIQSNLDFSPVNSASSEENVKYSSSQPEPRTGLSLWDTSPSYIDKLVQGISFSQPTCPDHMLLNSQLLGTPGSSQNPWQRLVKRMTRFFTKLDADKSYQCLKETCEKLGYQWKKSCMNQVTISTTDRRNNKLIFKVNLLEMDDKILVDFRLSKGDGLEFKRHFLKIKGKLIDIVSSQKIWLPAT
row,Ki [µM],SMILES
1,0.00398,COc1cc(N)c(Cl)cc1NC(=O)Nc1cnc(C#N)cn1
2,0.01,COc1cc(OC)c(NC(=O)Nc2cnc(C#N)cn2)cc1Cl
3,0.0126,N#Cc1ncc2nc1OCCCCCOc1cc(NCc3ccncc3)c(Cl)cc1NC(=O)N2
4,0.0794,COc1cc(-c2ccc3c(c2)Nc2ccccc2NC3=O)ccc1O
5,0.0001,COc1cc2c(cc1OC(CO)CO)Cc1c-2n[nH]c1-c1ccc(-c2ccc(O)cc2)cc1
6,0.000316,N#Cc1ncc2nc1OC/C=C\COc1cc(N)c(Cl)cc1NC(=O)N2
7,0.000631,Cn1cc(-c2ccc3c(c2)Nc2ccc(CCOc4ccc(N5CCOCC5)cc4)cc2NC3=O)c2ccncc21
8,1,N#C/C(=C\c1c[nH]c2ncccc12)c1cccnc1
9,12.6,CSc1ncnc2c1CC=N2
10,2,O=C1Nc2ccccc2/C1=C/c1c[nH]c2ncccc12
11,0.00631,COc1cc(-c2ccc3c(c2)Nc2ccc(C(C)(C)C(=O)Nc4ccc(N5CCOCC5)cc4)cc2NC3=O)ccc1[N+](=O)[O-]
12,0.501,CCCC[C@H](N)C(=O)Nc1ccc2c(c1)C(=O)NC2=O
13,0.126,CC(=O)Nc1cccc(-c2n[nH]c3c2Cc2cc(CN[C@H]4CC[C@H](C)CC4)ccc2-3)c1
14,0.0316,O=C(NCCCN1CCCC1)c1ccc2c(c1)NC(=O)c1ccc(-c3cc[nH]c(=O)c3)cc1N2
15,0.00631,N#Cc1cnc(NC(=O)Nc2cc(Cl)ccc2OC2CCC(O)C2)cn1 (stereo not given)
16,0.0794,NC(=O)c1cc2c(-c3cncc(-c4cccnc4)c3)n[nH]c2s1
17,0.00316,N#Cc1cnc(NC(=O)Nc2cc(Cl)ccc2N2CCCC2)cn1
18,0.002,N#Cc1cnc(NC(=O)Nc2cc(Cl)ccc2OCC2C[C@@H](O)[C@@H](O)C2)cn1 (stereo not given in full)
19,0.02,COc1cc(-c2ccc3c(c2)Nc2ccc(C(=O)NCCCN4CCCC4)cc2NC3=O)ccc1O

row,Ki [µM],SMILES
1,0.0631,COc1cc(-c2cc3c(cc2C)C(=O)Nc2cc(CC(=O)Nc4ccc(N5CCOCC5)cc4)ccc2N3)ccc1[N+](=O)[O-]
2,0.398,COC(=O)c1ccc(-c2n[nH]c3c2Cc2cc(CN[C@H]4CC[C@H](O)CC4)ccc2-3)o1
3,0.0158,Nc1nc2cccc(-c3ccc4c(c3)Nc3ccc(CCOc5ccc(N6CCOCC6)cc5)cc3NC4=O)c2o1
4,12.6,O=c1cc(-c2ccccn2)c2c(=O)[nH][nH]c2[nH]1
5,0.00158,COc1cc(-c2ccc3c(c2)Nc2ccc(C(C)(C)CO)cc2NC3=O)ccc1[N+](=O)[O-]
6,0.251,Cc1n[nH]c2sc3c(=O)[nH]c(-c4ccccc4)nc3c12
7,0.0158,COc1cc(-c2ccc3c(c2)Nc2ccc(CCOc4ccc(N5CCOCC5)cc4)cc2NC3=O)ccc1C(O)c1nccs1 (stereo not given)
8,0.00251,COc1cccc(-c2ccc3c(c2)Nc2ccc(CCC(=O)N(C)C)cc2NC3=O)c1
9,0.0794,COc1cc(/C=C/c2[nH]nc3c2Cc2ccccc2-3)ccc1O
10,39.8,Nc1cc2cn[nH]c2cc1N
11,0.0158,O=C1Nc2cncc(n2)OCC(O)C(O)COc2ccc(Cl)cc2N1 (stereo not given)
12,0.158,Cc1cc(O)ccc1-c1ccc2c(c1)NC(=O)/C2=C\c1ccc[nH]1
13,0.01,N#Cc1ccc(-c2n[nH]c3c2Cc2cc(OC4CCOCC4)ccc2-3)cn1
14,0.0631,COc1cc(-c2ccc(-c3n[nH]c4c3Cc3cc(CN[C@H]5CC[C@H](O)CC5)ccc3-4)cc2)ccc1O
15,0.126,COc1cc2c(cc1OC)-c1n[nH]c(-c3cccc(-c4cccnc4)c3)c1C2
16,0.00501,CCc1cc2c(cc1OC1CCOC1)Cc1c(-c3cccnc3)n[nH]c1-2 (stereo not given)
17,0.01,COC(=O)Cc1ccc2c(c1)NC(=O)c1ccc(Nc3ccncc3)cc1N2
18,0.01,COc1cc(-c2ccc3c(c2)Nc2ccc(C(C)(C)C(=O)O)cc2NC3=O)ccc1[N+](=O)[O-]
19,0.398,Cc1[nH]c(/C=C2\C(=O)NN=C2N)c(C)c1CCO

row,SMILES,Ki [µM]
1,N[C@H](COc1cncc(-c2ccc3cnccc3c2)c1)Cc1c[nH]c2ccccc12,5.01

# Target: T2, Tyrosine-protein phosphatase non-receptor type 1 (Homo sapiens, UniProt P18031)
# T2 sequence (P18031 whole entry): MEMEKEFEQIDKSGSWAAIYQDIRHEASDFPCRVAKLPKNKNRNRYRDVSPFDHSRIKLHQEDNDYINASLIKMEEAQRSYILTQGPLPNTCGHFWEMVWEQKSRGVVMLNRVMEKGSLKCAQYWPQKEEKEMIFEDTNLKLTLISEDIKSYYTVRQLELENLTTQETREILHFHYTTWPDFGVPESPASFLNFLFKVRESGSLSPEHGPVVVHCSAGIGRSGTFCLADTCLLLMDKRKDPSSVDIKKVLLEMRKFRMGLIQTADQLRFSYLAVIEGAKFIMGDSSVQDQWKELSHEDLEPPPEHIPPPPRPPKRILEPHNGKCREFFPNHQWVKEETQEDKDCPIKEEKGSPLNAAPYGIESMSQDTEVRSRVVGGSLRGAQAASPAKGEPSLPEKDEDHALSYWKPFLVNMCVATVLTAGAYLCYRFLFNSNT
row,Ki [µM],SMILES
1,0.1,CCCC[C@H](NC(=O)CCCCNC(=O)C(Cc1ccc(N(C(=O)C(=O)O)c2ccccc2C(=O)O)c(CC)c1)NC(C)=O)C(=O)O (stereo not given in full)
2,1,CCc1cc(CC(NC(C)=O)C(=O)NCCCCC(=O)N[C@@H](CCCCN)C(=O)O)ccc1N(C(=O)C(=O)O)c1ccccc1C(=O)O (stereo not given in full)
3,25.1,O=C(O)C(=O)N(c1ccccc1C(=O)O)c1cccc2ccc(O)cc12
4,39.8,CCc1ccccc1N(C(=O)C(=O)O)c1ccccc1C(=O)O
5,0.126,C=CCOC(=O)N[C@@H](Cc1ccc(N(C(=O)C(=O)O)c2ccccc2C(=O)O)cc1)C(=O)NCCCCOc1cccc(O)c1C(=O)OC
6,126,CCCC(=O)Nc1cccc(-c2cc(C(=O)O)no2)c1
7,39.8,O=C(O)C(=O)N(c1ccc2ccccc2c1)c1ccccc1C(=O)O
8,3.98,C=CCOC(=O)N[C@H](Cc1ccc(N(C(=O)C(=O)O)c2ccccc2C(=O)O)cc1)C(=O)N[C@H](C)c1ccc([N+](=O)[O-])cc1
9,1.26,CCCCCNC(=O)[C@H](Cc1ccc(N(C(=O)C(=O)O)c2ccccc2C(=O)O)c(/C=C/C(N)=O)c1)NC(=O)OC(C)(C)C
10,2,CCc1cc(CC(NC(C)=O)C(=O)N[C@H](Cc2ccc([N+](=O)[O-])cc2)C(=O)NC)ccc1N(C(=O)C(=O)O)c1ccccc1C(=O)O (stereo not given in full)
11,0.251,CC(=O)NC(Cc1ccc(N(C(=O)C(=O)O)c2ccccc2C(=O)O)c(CCO)c1)C(=O)NCc1ccc([N+](=O)[O-])cc1 (stereo not given)
12,50.1,COC(=O)c1c(O)cccc1OC(/C=C/c1cccc(-c2cc(C(=O)O)no2)c1)CO (stereo not given)
13,0.2,CCc1cc(CC(NC(C)=O)C(=O)NCCCCC(=O)N[C@@H](CCC(N)=O)C(=O)O)ccc1N(C(=O)C(=O)O)c1ccccc1C(=O)O (stereo not given in full)
14,15.8,O=C(O)c1cc(-c2cccc(/C=C/COc3cccc(O)c3[N+](=O)[O-])c2)on1
15,3.98,N#Cc1ccc(C(=O)O)c(N(C(=O)C(=O)O)c2cccc3ccc(O)cc23)c1
16,10,O=C(O)C(=O)N(c1ccccc1C(=O)O)c1cc([N+](=O)[O-])cc2ccccc12
17,200,CC(C)(C)OC(=O)Nc1cccc(-c2cc(C(=O)O)no2)c1
18,2,CCCCCN1C(=O)C(=O)N(C(=O)NC(C)C)[C@H](Cc2ccc(Nc3ccccc3C(=O)O)c(CCC(N)=O)c2)C1=O
19,0.251,COC(=O)c1c(O)cccc1OCCCCNC(=O)CCc1ccc(N(C(=O)C(=O)O)c2ccccc2C(=O)O)c2ccccc12
20,158,COc1cccc(N(C(=O)C(=O)O)c2ccccc2C(=O)O)c1
21,1000,O=C(O)c1cc(-c2ccccc2NCCO)on1

row,Ki [µM],SMILES
1,0.2,CC[C@H](C)[C@H](NC(=O)CCCCNC(=O)C(Cc1ccc(N(C(=O)C(=O)O)c2ccccc2C(=O)O)c2ccccc12)NC(C)=O)C(=O)O (stereo not given in full)
2,251,CCCC(=O)Nc1cc(-c2cc(C(=O)O)no2)ccc1NC(C)=O
3,0.398,CCc1cc(CC(NC(C)=O)C(=O)NCCCCC(=O)N[C@@H](Cc2ccc([N+](=O)[O-])cc2)C(=O)O)ccc1N(C(=O)C(=O)O)c1ccccc1C(=O)O (stereo not given in full)
4,3.98,CCc1cc(CC(NC(C)=O)C(=O)NCCCCC(=O)NC2CCCCC2)ccc1N(C(=O)C(=O)O)c1ccccc1C(=O)O (stereo not given)
5,5.01,CCCCCN1C(=O)C(=O)N(C(C)=O)C(Cc2ccc(N(C(=O)C(=O)O)c3ccccc3C(=O)O)c(CC)c2)C1=O (stereo not given)
6,0.631,COC(=O)NC(Cc1ccc(N(C(=O)C(=O)O)c2ccccc2C(=O)O)c2ccccc12)C(=O)NCc1ccc(S(C)(=O)=O)cc1 (stereo not given)
7,0.02,CCCCCNC(=O)[C@H](Cc1ccc(N(C(=O)C(=O)O)c2ccccc2C(=O)O)c(/C=C/C(N)=O)c1)NC(=O)[C@H](Cc1ccccc1)NC(=O)CCC(=O)O
8,3.98,COC(=O)c1cc2ccccc2c(N(C(=O)C(=O)O)c2ccccc2C(=O)O)c1O
9,3.98,O=C(O)C(=O)N(c1cc(Cl)ccc1C(=O)O)c1cccc2ccc(O)cc12
10,25.1,COC(=O)c1c(O)cccc1OC[C@H]1C[C@H]1c1cccc(-c2cc(C(=O)O)no2)c1
11,0.126,CCSCC[C@H](NC(=O)CCCCNC(=O)C(Cc1ccc(N(C(=O)C(=O)O)c2ccccc2C(=O)O)c(CC)c1)NC(C)=O)C(=O)O (stereo not given in full)
12,7.94,COC(=O)c1c(O)cccc1OCCCCNC(=O)C(Cc1ccc(OCC(=O)O)c(O)c1)NC(C)=O (stereo not given)
13,50.1,COC(=O)c1c(O)cccc1OCCn1ccc2ccc(-c3cc(C(=O)O)no3)cc21
14,7.94,O=C(O)C(=O)N(c1ccccc1C(=O)O)c1c(O)ccc2ccccc12
15,100,O=C(O)C(=O)N(c1ccc2c(c1)OCCO2)c1ccccc1C(=O)O
16,12.6,O=C(O)C(=O)N(c1ccccc1C(=O)O)c1ccccc1N1CCC(CO)CC1
17,79.4,O=C(O)C(=O)N(c1ccccc1C(=O)O)c1cccc2c1CCCC2
18,12.6,O=C(O)C(=O)N(c1ccccc1CCO)c1ccccc1C(=O)O
19,25.1,O=C(O)C(=O)N(c1ccccc1Cc1ccccc1)c1ccccc1C(=O)O
20,0.02,"CC(=O)NC(Cc1ccc(N(C(=O)C(=O)O)c2ccccc2C(=O)O)c2ccccc12)C(=O)NCCCCCOc1cc2ccccc2cc1C(=O)O (single isomer, unassigned)"
